# According to PMC9917025, “(2-Hydroxy-3-Methoxybenzylidene)thiazolo[3,2-a]pyrimidines: Synthesis, Self-Assembly in the Crystalline Phase and Cytotoxic Activity” (International Journal of Molecular Sciences, 2023):
# Tests used:
# [1] = system: PC3 (prostate adenocarcinoma cell line); experiment: MTT cytotoxicity assay, PC3 cells; type: cell-based; settings: Homo sapiens, PC-3, 48 h incubation, mean ± SD, triplicate
# Excerpt: (§1) For the experiments, the tumor cell cultures of M-HeLa clone 11 (epithelioid carcinoma of the cervix, subline HeLa., clone M-HeLa), HuTu 80, human duodenal adenocarcinoma, MCF7—human breast adenocarcinoma (pleural fluid) collected from the Institute of Cytology, Russian Academy of Sciences (St. Petersburg, Russia); PC3—prostate adenocarcinoma cell line collected from ATCC (American Type Cell Collection, Manassas, VA, USA; CRL 1435; human liver cells (Chang liver) and the Research Institute of Virology of the Russian Academy of Medical Sciences (Moscow, Russia) were used for cytotoxicity analysis.
# (§2) The cytotoxic effect on cells was determined by the colorimetric method of cell proliferation—MTT test. The cells were seeded on a 96-well Nunc plate at a concentration of 5 × 10^3 cells per well in a volume of 100 µL of medium and cultured in a CO2 incubator at 37 °C until a monolayer was formed. Then, the nutrient medium was removed and 100 μL of the test drug solution in these dilutions was added to the wells prepared directly in the nutrient medium with the addition of 5% DMSO to improve solubility. After 48 h of cell incubation with test compounds, the nutrient medium was removed from the plates and 100 μL of serum-free nutrient medium with MTT at a concentration of 0.5 mg/mL was added and incubated for 4 h at 37 °C. C. Formazan crystals were added to 100 µL of DMSO. The optical density was recorded at 540 nm on an Invitrologic microplate reader (Novosibirsk, Russia). The experiments for all compounds were repeated three times.
# [2] = system: M-HeLa clone 11 (epithelioid carcinoma of the cervix, subline HeLa, clone M-HeLa); experiment: MTT cytotoxicity assay, M-HeLa cells; type: cell-based; settings: for IC50: Homo sapiens, M-HeLa, MTT, 48 h incubation, mean ± SD, triplicate; for selectivity index (SI): ratio between IC50 for normal cells and IC50 for tumor cells, with respect to M-HeLa cell line
# Excerpt: as §1, §2
# [3] = system: Chang liver (HeLa derivative), human liver cells; experiment: MTT cytotoxicity assay, normal Chang liver cells; type: cell-based; settings: for IC50: Homo sapiens, HeLa, MTT, 48 h incubation, mean ± SD, triplicate, read-out: IC50 (µM) Chang Liver (HeLa), normal cell line
# Excerpt: as §1, §2
# [4] = system: MCF−7 (human breast adenocarcinoma); experiment: MTT cytotoxicity assay, MCF-7 cells; type: cell-based; settings: MCF7, 48 h incubation, mean ± SD, triplicate
# Experimental: The cytotoxic effect on cells was determined by the colorimetric method of cell proliferation—MTT test. […] C. Formazan crystals were added to 100 µL of DMSO. The optical density was recorded at 540 nm on an Invitrologic microplate reader (Novosibirsk, Russia). The experiments for all compounds were repeated three times.
# [5] = system: HuTu 80 (human duodenal adenocarcinoma); experiment: MTT cytotoxicity assay, HuTu 80 cells; type: cell-based; settings: for IC50: Homo sapiens, HuTu80, MTT, 48 h incubation, mean ± SD, triplicate
# Excerpt: as §1, §2
melting point [°C],SMILES,IC50 [1] [µM],IC50 [2] [µM],IC50 [3] [µM],IC50 [4] [µM],IC50 [5] [µM],selectivity index (SI) [2],cytotoxicity against M-HeLa (in words) [2],efficiency of cytotoxicity towards M-HeLa compared to Sorafenib ([2]; relative to reference drug Sorafenib),"activity on normal cells, Chang liver (in words) [3]",cytotoxicity towards HuTu 80 (in words) [5]
231 to 233,"CCOC(=O)C1=C(C)N=c2s/c(=C\c3cccc(OC)c3O)c(=O)n2C1c1ccccc1 (stereo not shown) [Compound 4, Ethyl (Z)−2-(2-hydroxy−3-methoxybenzylidene)−7-methyl−5-phenyl−3-oxo−2,3-dihydro−5H-thiazolo[3,2-a]pyrimidine−6-carboxylate]",> 100,> 100,> 100,> 100,> 100,,,,,
209 to 211,"COc1cccc(/C=c2\sc3n(c2=O)C(c2ccc(C)cc2)C(C(C)=O)=C(C)N=3)c1O (stereo not shown) [Compound 1, 6-Acetyl-(Z)−2-(2-hydroxy−3-methoxybenzylidene)−7-methyl−5-(p-tolyl)−2H-thiazolo[3,2-a]pyrimidine−3(5H)-one]",57.4 ± 4.5,88 ± 7,> 100,> 100,88 ± 6.9,,,,,
193 to 195,"CCOC(=O)C1=C(C)N=c2s/c(=C\c3cccc(OC)c3O)c(=O)n2C1c1ccccc1OC (stereo not shown) [Compound 3, Ethyl (Z)-2-(2-hydroxy-3-methoxybenzylidene)-7-methyl-5-(2-methoxyphenyl)-3-oxo-2,3-dihydro-5H-thiazolo[3,2-a]pyrimidine-6-carboxylate]",54.1 ± 4.3,98.1 ± 7.7,96 ± 7.5,> 100,> 100,,,,,
,"CNC(=O)c1cc(Oc2ccc(NC(=O)Nc3ccc(Cl)c(C(F)(F)F)c3)cc2)ccn1 [Sorafenib, reference compound]",12.7 ± 1.1,25 ± 1.8,,,13 ± 1.2,lower than 1,,,,
206 to 208,"CCOC(=O)C1=C(C)N=c2s/c(=C\c3cccc(OC)c3O)c(=O)n2C1c1cccc([N+](=O)[O-])c1 (stereo not shown) [Compound 2, Ethyl (Z)−2-(2-hydroxy−3-methoxybenzylidene)−7-methyl−5-(3-nitrophenyl)−3-oxo−2,3-dihydro−5H-thiazolo[3,2-a]pyrimidine−6-carboxylate]",> 100,16.2 ± 1.3,> 100,72 ± 5.8,90 ± 8,higher than 6,high cytotoxicity,two times higher,low biological activity,
190 to 192,"CCOC(=O)C1=C(C)N=c2s/c(=C\c3cccc(OC)c3O)c(=O)n2C1c1cccc(Br)c1 (stereo not shown) [Compound 5, Ethyl 5-(3-bromophenyl)-(Z)−2-(2-hydroxy−3-methoxybenzylidene)−7-methyl−3-oxo−2,3-dihydro−5H-thiazolo[3,2-a]pyrimidine−6-carboxylate]",> 100,> 100,51.4 ± 4.1,> 100,43.3 ± 3.4,,,,Moderate cytotoxicity,Moderate cytotoxicity
234 to 236,"CCOC(=O)C1=C(C)N=c2s/c(=C\c3cccc(OC)c3O)c(=O)n2C1c1ccc(Br)cc1 (stereo not shown) [Compound 6, Ethyl 5-(4-bromophenyl)-(Z)−2-(2-hydroxy−3-methoxybenzylidene)−7-methyl−3-oxo−2,3-dihydro−5H-thiazolo[3,2-a]pyrimidine−6-carboxylate]",100 ± 8.6,85 ± 7.8,64.2 ± 5.1,> 100,90.3 ± 8.1,,,,,
